{
  "source": "patent US20060211071A1",
  "about": "“Device for aggregating, imaging and analyzing thrombi and a method of use” (Millennium Pharmaceuticals, Inc., priority 2004, published 2006)",
  "key": {"preformed thrombi": {"system": "preformed thrombi", "assay": "Stability / reversal of preformed thrombi, blood perfused over collagen surface under arterial shear rates", "assay_type": "cell-based, human", "method": "Images are recorded at a frequency of 1 Hz.\nSuch assays can be used to detect antithrombotic activity of drugs that will target known effectors of thrombus stability reported in animal models of thrombosis (CD40L, Gas6, SLAM, SAP, Ephrin)."}, "[1]": {"system": "thrombi on type III collagen-coated capillaries", "assay": "End-point perfusion chamber assay: effect of anticoagulants on antithrombotic activity of a P2Y12 antagonist", "assay_type": "cell-based, human", "conditions": "4 minutes at 1000/sec", "method": "Several anticoagulants have been studied for their effects on the antithrombotic activity of a proprietary direct P2Y12 antagonist in the perfusion chamber assay. Whole blood was perfused over type III collagen-coated capillaries for 4 minutes at 1000/sec. At the end of the experiment, thrombotic deposits were rinsed, fixed and stained with toluidine blue for measurement of thrombus size. […] FIG. 10B represents the mean grey level (MGL) of the thrombi present in the area of observation located at 8 mm from the proximal part of the capillary. Corresponding thrombus volume was determined using the graph presented on FIG. 10C. Nonanticoagulated or Factor Xa anticoagulated human blood was perfused through type III collagen-coated capillary chambers (Vitrocom, glass rectangular capillaries 0.2 by 2 mm section) at […] for 4 minutes. After staining of the thrombotic deposits with toluidine blue for 45 seconds, an En Face picture located 8 mm downstream of the proximal part of the capillary was taken. Measurement of the gray level of each thrombus or platelets located in a window 400 μm long×250 μm wide was performed, and results are expressed as mean ±SEM using the Simple PCI software (Compix Inc Imaging System). Measurement of the mean thrombus volume (μm^3/μm^2) was performed at the same location on cross sections of the thrombotic deposits after epon embedding as described by Andre et al. (2003) Circulation 108, 2697-2703. Mean thrombus volume was expressed by use of Simple PCI software and plotted against the corresponding mean grey level. By using data from human in vitro (by titrating with the GPIIb/IIIa antagonist eptifibatide) experiments, a thrombotic profile (FIG. 10C) that was then used for a rapid measurement of the thrombus volume in subsequent experiments Was established"}, "platelets": {"system": "platelets", "assay": "Whole blood treated with GPIIb/IIIa antagonist perfused over collagen surface: monolayer of adhering platelets", "assay_type": "cell-based", "conditions": "therapeutic dose 2-3 uM", "text": "P-selectin is responsible for the recruitment of leukocytes on activated/inflamed vessel wall and at sites of platelet deposition. It is known that leukocyte recruitment under these conditions will contribute to atherosclerotic plaque progression. Therefore monitoring the number of leukocyte rolling on adhering platelets could help define people at risk to develop future atherothrombotic events (number of leukocyte recruited as a predictor of future clinical events). Whole blood treated with a GPIIb/IIIa antagonist (e.g. Integrilin at the therapeutic dose 2-3 uM) and perfused over a collagen surface generate a monolayer of adhering platelets. […] Two to three minutes after the start of the perfusion at arterial shear rates of about ˜600/sec, leukocytes stained with rhodamine 6G are being recruited and roll over the adhering platelets. Antithrombotic agents (or agents targeting the P-selectin/PSGL-1 pathway) that will reduce the amount of leukocyte rolling on adhering platelets will therefore potentially reduce the risks of atherothrombotic events."}, "[2]": {"system": "thrombotic process triggered by type III collagen", "conditions": "1000/sec", "quoted_text": "The methodology and device described herein allows the monitoring in real time of the deposition of fluorescently labeled platelets into a transparent perfusion chamber (FIG. 11). The thrombosis profiler consists of a custom built epifluorescence microscope to monitor thrombus formation and a syringe pump to establish the desired flow and wall shear rate in the capillary perfusion chamber. A thermostatic sample compartment maintains the blood sample at a temperature of 37° C. Platelets are labeled by adding an aliquot of Rhodamine 6G (final concentration 1.25 μg/ml) to whole blood. […] Excitation and emission light are filtered with a set of fluorescence filters (31002, Chroma Technologies, Rockingham, Vt.). […] Images are recorded at a frequency of 1 Hz. […]\nA software/algorithm has been developed in order to obtain a more representative read out of the thrombus formation over time. […] Since the use of antithrombotic drugs can increase platelet adhesion, thrombus size was represented as the measurement of the fluorescence intensity divided by total area (FIG. 12). […] Once the threshold is determined, pixels with values lower than the threshold are classified as background and pixels with values greater than the threshold are marked as foreground. […]"}, "thrombus size": {"system": "thrombus size", "assay": "Sequential study of thrombotic profile of 20 healthy volunteers on clopidogrel, aspirin and their combination", "assay_type": "in vivo, human", "conditions": "clopidogrel 75 mg/day, aspirin 325 mg/day"}, "thrombus destabilization": {"system": "thrombus destabilization", "conditions": "two 300 mg loading doses of plavix and daily aspirin"}, "[3]": {"system": "thrombotic process on collagen+tissue factor coated matrix", "assay": "Non-anticoagulated blood perfused over fibrillar collagen plus tissue factor matrix", "assay_type": "cell-based", "conditions": "therapeutic dose; arterial shear rates", "text": "In this method, the thrombotic process can be evaluated with non-anticoagulated samples of blood. Non-anticoagulated samples of blood perfused over a thrombogenic matrix made of fibrillar collagen plus tissue factor generate thrombotic process under both venous and arterial shear rates that is sensitive to the action of different anticoagulants. In FIG. 22, the thrombotic profile, is inhibited by the therapeutic dose of enoxaparin and a factor Xa inhibitor indicating this system can be used to detect the activity of anticoagulants under arterial shear rates. Similarly, this method can be used to detect both platelet and fibrin deposition under venous shear rate conditions using for example fluorescently labeled antibodies directed against fibrin."}},
  "note": "Where a SMILES comes first, the peptide text is derived from it. Bridges are numbered along the chain shown (N, C = ends). [ ]: non-standard residue; d: D form. hArg = N=C(N)NCCCC[C@H](N)C(=O)O; Mpa = O=C(O)CCS",
  "data": [
    {"compound": "CSc1nc(N)c2ncn([C@@H]3O[C@H](COP(=O)(O)O)[C@@H](O)[C@H]3O)c2n1", "note": "[2MeSAMP]", "values": [
      {"measurement": "mechanism of effect on thrombosis (thrombus stability)", "setting": "preformed thrombi", "value": "affect thrombosis via a mechanism targeting the thrombus stability"},
      {"measurement": "destabilization / reversal of preformed thrombi", "setting": "preformed thrombi; 100 uM", "value": "induces the destabilization of preformed thrombi"},
      {"measurement": "extent of the reversal phenomenon in presence of aspirin", "setting": "preformed thrombi; 2MeSAMP at 100 uM, aspirin present", "value": "increased in presence of aspirin"}
    ]},
    {"compound": "O=C(O)CC(O)(CC(=O)O)C(=O)O", "note": "[Citrate]", "values": [
      {"measurement": "effect of the anticoagulant on the antithrombotic activity of a P2Y12 antagonist", "setting": "[1]", "value": "artificially increased the antithrombotic effects of P2Y12 antagonist"}
    ]},
    {"compound": "CCCCCNC(=O)c1coc([C@H]2[C@@H](Cc3ccccc3CCC(=O)O)[C@@H]3CC[C@H]2O3)n1", "note": "[Ifetroban]", "values": [
      {"measurement": "mechanism of effect on thrombosis (thrombus stability)", "setting": "preformed thrombi", "value": "affect thrombosis via a mechanism targeting the thrombus stability"},
      {"measurement": "stability of preformed thrombi", "setting": "preformed thrombi; 300 nM and 1 uM", "value": "significantly altered their stability"}
    ]},
    {"compound": "N=C(N)NCCCC[C@@H]1NC(=O)CCSSC[C@@H](C(N)=O)NC(=O)[C@@H]2CCCN2C(=O)[C@H](Cc2c[nH]c3ccccc23)NC(=O)[C@H](CC(=O)O)NC(=O)CNC1=O", "note": "[Integrilin] ([Mpa][hArg]GDWPC-NH2; disulfide 1-7)", "values": [
      {"measurement": "platelet activation", "setting": "platelets", "value": "platelet activation is not affected"},
      {"measurement": "thrombus formation", "setting": "platelets", "value": "thrombus formation is abrogated"},
      {"measurement": "concentration reaching maximum level of inhibition (therapeutic dose)", "setting": "[2]; Factor Xa-anticoagulated blood", "value": 2, "unit": "µM"},
      {"measurement": "inhibition of the thrombotic process", "setting": "[2]; increasing concentrations spiked into Factor Xa-anticoagulated blood", "value": "dose-dependently inhibited the thrombotic process"}
    ]},
    {"compound": "CNc1ncnc2c1ncn2[C@H]1C[C@H](OP(=O)(O)O)[C@@H](COP(=O)(O)O)O1", "note": "[MRS2179]", "values": [
      {"measurement": "destabilization / reversal of preformed thrombi", "setting": "preformed thrombi; 100 uM", "value": "did not induced thrombus reversal"},
      {"measurement": "slope of thrombus growth", "setting": "preformed thrombi; 100 uM, added to preformed thrombi", "value": "reduced the slope of thrombus growth"}
    ]},
    {"compound": "NC(N)=NCCC[C@H](NC(=O)[C@@H]1CCCN1C(=O)[C@H](N)Cc1ccccc1)C(=O)CCl", "note": "[PPACK]", "values": [
      {"measurement": "effect of the anticoagulant on the antithrombotic activity of a P2Y12 antagonist", "setting": "[1]", "value": "artificially increased the antithrombotic effects of P2Y12 antagonist"}
    ]},
    {"compound": "CC(=O)Oc1ccccc1C(=O)O", "note": "[aspirin]", "values": [
      {"measurement": "healthy individuals that did not respond to monotherapy", "setting": "thrombus size", "value": "5 out of 20"},
      {"measurement": "mechanism of effect on thrombosis (thrombus stability)", "setting": "preformed thrombi", "value": "affect thrombosis via a mechanism targeting the thrombus stability"}
    ]},
    {"compound": "COC(=O)[C@H](c1ccccc1Cl)N1CCc2sccc2C1", "note": "[clopidogrel]", "values": [
      {"measurement": "antithrombotic protection in type II diabetic patient", "setting": "thrombus destabilization", "value": "lack of protection"},
      {"measurement": "healthy individuals that did not respond to monotherapy", "setting": "thrombus size", "value": "4 out of 20"},
      {"measurement": "mechanism of effect on thrombosis (thrombus stability)", "setting": "preformed thrombi", "value": "affect thrombosis via a mechanism targeting the thrombus stability"}
    ]},
    {"compound": "enoxaparin", "values": [
      {"measurement": "thrombotic profile", "setting": "[3]", "value": "inhibited"}
    ]},
    {"compound": "hirudin", "values": [
      {"measurement": "effect of the anticoagulant on the antithrombotic activity of a P2Y12 antagonist", "setting": "[1]", "value": "least impact on the antithrombotic activity of P2Y12 antagonist"}
    ]}
  ]
}
